Measurements reported in US4153709A, “N-Heterocyclic ureas as immune regulants” (Eli Lilly and Company, priority 1977, dated 1979).
Like-named read-outs stand apart in the source and are kept apart here.

Tests used:
[1] = tested on: Salmonella typhimurium G46 missense histidine-auxotroph; assay type: cell-based
Experimental: Compounds found active in the qualitative test were further tested. The culture to be tested was grown to stationary phase in tryptone yeast broth and then diluted to a viable count of about 9×10^7 organisms per milliliter.
Eleven log4 dilutions of the test compound were made covering a range that would allow survival of nonlethal mutants. The dilutions were made in Spizizen's minimal media with minute amounts of histidine and biotin (20 nM) each in […]. tubes. Each tube contained 3 ml. after dilution. Replicate 1 ml. aliquots of test organism were added to each tube including six "0" drug tubes. Final drug concentrations were calculated from 4-ml. volumes (3 ml. drug dilution +1 ml. test organism). Two of the "0" drug tubes were immediately plated at 10° dilution in minimal medium and 10^-5, 10^-6, 10^-7 dilutions in medium containing excess histidine (40 mcg/ml.) Spontaneous revertants (histidine+) were detected in the 10° dilution. Mutable population (histidine-) were detected in the 10^-5, 10^-6, and 10^-7 dilutions. All remaining dilutions were incubated in a Dubonoff shaker at 37° C. for 4 hr., then iced at 4° C. […] A 1-ml. aliquot from each "0" control was also plated at 10^-6, 10^-7, and 10^-8 dilutions in media with excess histidine to detect growth of mutable population (histidine-); normally there are 3-4 generations of the mutable population. All minimal media plates were counted. A dose response increase in revertants above spontaneous background indicated mutagenic potential of a test compound. […] Lethality has occurred to both populations, histidine+ and histidine-, at the same compound levels in all drugs tested to date.
The results are recorded as mutants test/mutants control.

[2] = tested on: Salmonella typhimurium G46 missense histidine-auxotroph; assay: Host mediated assay (in vivo mutagenicity), G46 indicator (Table 22); parameters: species or system Salmonella typhimurium in Cox white Swiss male mice
Experimental: Cox white Swiss male mice 25-30 grams were used in all in vivo tests.
A. Drug Administration: Appropriate solvents were used where applicable with a solvent control run within each test. […] The organisms were grown to stationary phase, then diluted with normal saline to give an inoculum near 1×10^8 organisms per milliliter. The abdominal area of the drug-treated mouse was swabbed with alcohol and two milliliters of bacterial culture were injected into the abdominal cavity of the mouse. The mice were returned to their cages for 3-4 hours.
C. Autopsy and Recovery: The mice were sacrificed individually by cervical dislocation prior to each autopsy. The abdominal areas were soaked with ethanol. The peritoneum was bared and 2.5 ml. of sterile normal saline was injected into the peritoneal cavity using a sterile (3-ml. plastic syringe with a 20-gauge needle. After insertion, the needle is turned bevel up and the saline was expelled into the cavity; while the needle remains through the peritoneum, keeping the point of the needle in sight pressed against the peritoneal wall, the abdomen of the mouse was massaged to mix contents. The saline wash was removed from the abdominal cavity back into the syringe. The needle was removed and the contents expelled into an appropriately marked tube and iced 4° C.
D. Dilution and Plating: One-ml. samples were plated at 10° dilution on all mice to determine revertants (histidine+).
A one-milliliter sample from the untreated dilutions from control animals is plated 10^-6, 10^-7, and 10^-8 dilutions with excess histidine to determine mutable population (histidine-).

[3] = tested on: Salmonella typhimurium G46 missense histidine-auxotroph; assay: Qualitative in vitro prescreen for mutagenicity, G46 indicator (Table 22); conditions: 200 mcg disc
Description: Filter paper discs 1/4" were impregnated with 200 mcg of test compound using either H2 O or DMSO as solvent. The discs were placed on Petri dishes containing minimal media which had been individually seeded with one of the twelve tester strains. […] A uniform circle of colonies appear around the pad when a compound with mutagenic potential is present. The test compound forms a concentration gradient as it diffuses from the pad. Occasionally, there is a clear ring in close proximity to the pad surrounded by a uniform circle of revertant colonies which indicates a lethal mutation at high concentration of compound and nonlethal mutation at lesser concentration. A single pad thus allows one to test a compound over a wide range of concentrations. Histidine+ colonies were developed enough to read after 48 hr. incubation at 37° C. The plates were read as follows:
A. background zone, if present, is measured in millimeters, if not, a negative is recorded (-).
B. mutant zone is measured in millimiters, if present; if not, a negative (-) is recorded.
C. the mutation frequency can be estimated from density of mutant colonies as follows:
1. Low frequency--few colonies
2. Moderate frequency--many colonies
3. High frequency--dense ring of colonies
4. No colonies recorded (-)

[4] = tested on: antibody to sheep red blood cells; assay: 75 percent reduction of control antibody titer in mice by subcutaneous, percutaneous and oral routes (Table 16); assay type: in vivo, male Swiss mice; conditions: Mus musculus, Erythrocyte
Experimental: Subcutaneous, percutaneous, and oral activity have been achieved as indicated in Table 16 which follows employing representative compounds from the above entitled application. […] Except as indicated, the tests were performed using groups of five 20-gram male Swiss mice injected with 5×10^7 sheep red blood cells intravenously for each drug level. Ten (daily) administrations of drug were made commencing three days prior to red blood cell injection. On the day following the final treatment (7 days after red blood cell injection) the animals were bled by cardiac puncture, the sera from each five-mouse-group were pooled, and antibody titers of these serum pools and corresponding serum pools from control (untreated) mouse groups were determined. The results are expressed as the minimum drug dose effecting 75 percent reduction of control antibody titer: […]

[5] = tested on: graft versus host reaction; assay: Graft versus host (GVH) reaction, spleen weight (Tables 20, 21); assay type: in vivo, mice (C57BL donors, F1 hybrid C57BL×C3H recipients)
Experimental: In this determination, […] (C57BL) mouse spleen cells are injected into mice of an F1 hybrid strain (C57BL×C3H). […] The injected cells, however, mount a reaction to the recipient's tissues due to the foreign C3H-derived antigens. As a consequence, the recipient's spleen becomes enlarged. Immunosuppressive therapy prevents or reduces this enlargement. Thus, spleen weights provide a measure of the GVH reaction and its reduction under immunosuppression.
Treated and GVH control animals receive an intraperitoneal injection of 1.2×10^9 splenic lymphocytes from the C57 donors. Spleens are weighed ten days later. Spleen weights derived from groups of recipient mice receiving genetically homologous, i.e., syngeneic cells (C57BL×C3H) provide normal control values for calculating percent inhibition in drug-treated groups. For example, mice given 13 daily topical doses of 1-(4,5,6,7-tetra-hydro-2-benzothiazolyl)-3-phenyl urea show a 62% reduction in GVH reaction relative to controls, as set forth in Table 20.
Using this procedure, three compounds from the above useful in the processes of this invention have been compared with several reference immunosuppressive drugs. Treatment levels defining the 50 percent inhibitory dose have been determined.

[6] = tested on: neoplasms in NZBxW mice; conditions: cited from earlier work
[7] = tested on: antibody response to sheep blood cells (hemaglutination titer); assay: Immune regulating test: suppression of hemaglutination titer by 4-fold factor in mice (i.p. drug, i.p. sheep blood cells), Tables 1-15; assay type: in vivo, Swiss mice; conditions: Mus musculus, ip, 192 h, × 3, intraperitoneal, minimum dose to suppress the hemaglutination titer by a 4-fold factor, 8 days after antigen, read-out: Immuno-Suppressant ED4-Fold
Experimental: The ability of compounds according to the above formulas to alter immune mechanisms in a host animal was measured by their activity according to the following test. Groups of five 20-gram Swiss mice were injected intraperitoneally with standardized suspensions of an antigen--in this instance sheep blook cells. […] Eight days after injection of the antigen, the mice were bled and the sera from each group pooled. Antibody determinations were made on the serum pools by a hemaglutination pattern procedure and comparisons made between treated and control animals. In Tables 1-18 which follow, the activity of the compounds listed therein is given in terms of the minimum dose of drug necessary to suppress the hemaglutination titer by a 4-fold factor in the treated mice as compared with control titers.

[8] = tested on: antibody to the sheep red blood cell antigen; assay: Antibody response to sheep red blood cells in marmosets, injected drug; assay type: in vivo; conditions: 25 mg/kg daily for three days
Experimental: In order to determine if the compounds disclosed herein had immunoalterant activity in a primate species, representative numbers of the series were tested in marmosets. 1-(2-Fluorophenyl)-3-(6-methoxy-2-benzothiazolyl) urea was injected in 25 mg/kg doses daily for three days into five marmosets. A similar group of five untreated marmosets was reserved as a control series. On the day following the third treatment, all animals received intraperitoneal injections of antigen (1×10^9 sheep red blood cells). On the 7th day following antigen injection, serum levels of antibody to the sheep red blood cell antigen were determined.

[9] = oral, × 10 daily doses commencing 3 days before antigen i.v., read-out: Lowest Dose Producing 75% Immunosuppression, Oral
[10] = percutaneous, × 10 daily doses commencing 3 days before antigen i.v., read-out: Lowest Dose Producing 75% Immunosuppression, Percutaneous
[11] = sc, subcutaneous, × 10 daily doses commencing 3 days before antigen i.v., read-out: Lowest Dose Producing 75% Immunosuppression, Subcutaneous
[12] = 300 mg/kg, s.c., MT/MC of 3 would indicate mutagenic potential

CN(N=O)C(=O)N[C@H]1C(O)O[C@H](CO)[C@@H](O)[C@@H]1O (stereo partly shown) [STREPTOZOTOCIN]
IN VITRO QUANTITATIVE MT/MC ([1]; .11 mcg/ml): 6750 | IN VIVO mutants test/mutants control ([2]; 3 mg/kg, s.c.): 2782 | IN VIVO mutants test/mutants control ([2]; 30 mg/kg, s.c.): 444 | IN VIVO mutants test/mutants control ([2]; .03 mg/kg, s.c.): 3.35 | IN VIVO mutants test/mutants control ([2]; .3 mg/kg, s.c.): 278 | IN VITRO QUALITATIVE FREQ (mutation frequency) [3]: HIGH

O=P1(N(CCCl)CCCl)NCCCO1 (stereo not shown) [Cyclophosphamide, reference compound]
minimal effective dose [4, 9]: 25 mg/kg | minimal effective dose [4, 10]: 25 mg/kg | Percent GVH Inhibition ([5]; 6.25 mg/kg × 13, s.c.): 32% | Percent GVH Inhibition ([5]; 12.5 mg/kg × 13, s.c.): 53% | incidence of neoplasms ([6]; Walker and Bole, J. Lab. Clin. Med. 82,619 (1972), control 5 percent): 100%

COc1ccc2nc(NC(=O)Nc3ccccc3F)sc2c1 [Table 11: o-fluorophenyl, 6-CH3 O, S, 1-(2-Fluorophenyl)-3-(6-methoxy-2-benzothiazolyl) urea]
minimal effective dose [7]: < 3.1 mg/kg | treated animals showing detectable antibody ([8]; injected, five marmosets, 7th day following antigen): only one of the treated animals | antibody titer of the responding treated animal ([8]; controls titers from 1-10 to 1-80): 1-10

O=C(Nc1ccccc1)Nc1nc2ccccc2s1 [Table 11: phenyl, H, S, 1-(2-benzothiazolyl)-3-phenyl urea]
minimal effective dose [7]: 6.2 mg/kg | minimal effective dose [4, 11]: 1 mg/kg | minimal effective dose [4, 9]: 25 mg/kg | minimal effective dose [4, 10]: 6.2 to 12.5 mg/kg | Percent GVH Inhibition ([5]; 0.8 mg/kg × 13, s.c.): 29% | Percent GVH Inhibition ([5]; 1.6 mg/kg × 13, oral): 46% | Percent GVH Inhibition ([5]; 1.6 mg/kg × 13, s.c.): 54% | Percent GVH Inhibition ([5]; 3.12 mg/kg × 13, oral): 64%

O=C(Nc1ccccc1)Nc1nc2c(s1)CCCC2 [Table 13: phenyl, 1-(4,5,6,7-tetrahydro-2-benzothiazolyl)-3-phenyl urea]
minimal effective dose [7]: 25 mg/kg | minimal effective dose [4, 11]: 12.5 mg/kg | minimal effective dose [4, 9]: 25 to 100 mg/kg | minimal effective dose [4, 10]: 3.1 mg/kg | Percent GVH Inhibition ([5]; 50 mg/kg × 13, oral): 41% | Percent Inhibition of GVH reaction ([5]; 100 mg/kg × 13, daily topical): 62% | Mg Spleen/g Body Weight ± S.E. ([5]; 100 mg/kg × 13, daily topical, GVH control 11.03 ± 0.35, syn. control 5.20 ± 0.37): 7.42 ± 0.63 Mg Spleen/g Body Weight | Percent GVH Inhibition ([5]; 100 mg/kg × 13, oral): 54%

C1CN1c1nc(N2CC2)nc(N2CC2)n1 [TEM, trimethylenemelamine]
IN VITRO QUANTITATIVE MT/MC ([1]; 180 mcg/ml): 24 | IN VIVO mutants test/mutants control ([2]; 3 mg/kg, s.c.): 13 | IN VIVO mutants test/mutants control ([2]; 30 mg/kg, s.c.): 27 | IN VIVO mutants test/mutants control [2, 12]: 13 | IN VIVO mutants test/mutants control ([2]; .3 mg/kg, s.c.): 3.2 | IN VITRO QUALITATIVE FREQ (mutation frequency) [3]: MEDIUM

Cn1cnc([N+](=O)[O-])c1Sc1ncnc2nc[nH]c12 [Azathioprine, reference compound]
minimal effective dose [4, 11]: 50 to 100 mg/kg | minimal effective dose [4, 9]: 50 mg/kg | minimal effective dose [4, 10]: 100 mg/kg | Percent GVH Inhibition ([5]; 5 mg/kg × 13, s.c.): 43% | Percent GVH Inhibition ([5]; 10 mg/kg × 13, s.c.): 61% | mutagenic potential in the host-mediated system ([2]; high levels): POSSIBLE MUTAGENIC POTENTIAL | increase in neoplasms ([6]; Casey, New Zealand Medical Journal 74,290 (1973), control 0 percent): 58%

CN(C)N=O [DMNA, N-nitrosodimethylamine]
IN VITRO QUANTITATIVE MT/MC ([1]; 750 mcg/ml): .33 | IN VIVO mutants test/mutants control ([2]; 3 mg/kg, s.c.): 1.16 | IN VIVO mutants test/mutants control ([2]; 30 mg/kg, s.c.): 43.6 | IN VIVO mutants test/mutants control [2, 12]: 620 | requirement of host mediation for mutagenic potential ([2]; mouse, in vivo): requiring host-mediation to demonstrate mutagenic potential | IN VITRO QUALITATIVE ACTIVITY [3]: N

CC(=O)Oc1ccccc1C(=O)O [ASA, Acetylsalicylic Acid]
IN VITRO QUANTITATIVE MT/MC ([1]; 750 mcg/ml): .58 | IN VIVO mutants test/mutants control ([2]; 30 mg/kg, oral gavage): 1.11 | IN VIVO mutants test/mutants control ([2]; 300 mg/kg, oral gavage): 1.06 | IN VITRO QUALITATIVE ACTIVITY [3]: N

C[C@]12CCC(=O)C=C1CC[C@@H]1[C@@H]2C(=O)C[C@@]2(C)[C@H]1CC[C@]2(O)C(=O)CO [Cortisone, reference compound]
minimal effective dose [4, 11]: 25 mg/kg | minimal effective dose ([4]; oral, × 10, **antigen given intraperitoneally, read-out: Lowest Dose Producing 75% Immunosuppression, Oral): 200 to 400 mg/kg | minimal effective dose [4, 10]: 50 mg/kg | Percent GVH Inhibition ([5]; 1.56 mg/kg × 13, s.c.): 48% | Percent GVH Inhibition ([5]; 3.12 mg/kg × 13, s.c.): 82%
